Data on two compounds can be found in patent US8470552B2, “Strategy to reduce lactic acid production and control PH in animal cell culture” (Keck Graduate Institute, priority 2009, dated 2013).

Experiment [1] relates to Lactate Adapted cells (DG44 CHO). The experiment can be described thus: Lactate Adapted cells continuously passaged in medium containing 0 to 40 mM lactate. It counts as cell-based, Chinese Hamster. The protocol:
Unless otherwise noted, the experiments described herein were conducted with a dihydrofolate reductase deficient (DHFR^−) Chinese Hamster Ovary cell line, DG44 CHO (Invitrogen, Carlsbad, Calif.). Prior to experimentation, the cells were transfected with a pOPTI-Vec TOPO plasmid vector containing the gene for a recombinant monoclonal ScFv-Fc1 protein fragment. Transfected cells were grown in selective OptiCHO medium (Invitrogen, Carlsbad, Calif.) and the recombinant gene copy number was further amplified by supplementing the medium with 250 nM methotrexate. The amount of recombinant antibody fragment expressed was less than 10 mg/L and not subsequently measured. This cell line was used to test the feasibility of the novel approach in terms of cell growth, death, and metabolism. Cells were frozen down and hereafter referred to as “Native Control” cells. […]
Cell concentration and viability was measured by the trypan blue exclusion method using a ViCell analyzer (Beckman Coulter, Fullerton, Calif.). […] Osmolality was measured by freezing point depression on a Model 3250 Osmometer (Advanced Instruments, Norwood, Mass.) […]
Metabolic flux was calculated as specific nutrient consumption rate or specific metabolite production rate (qp) using Equations 5 and 6, where P is nutrient such as glucose or glutamine or metabolite such as lactic acid or ammonium) concentration: […]

Experiment [2] deals with DG44 CHO (Native Control cells). Kind of experiment: Native control cells grown in various levels of Na-lactate and NaCl (shaker flasks). It counts as cell-based, Chinese Hamster. The method, then: Unless otherwise noted, the experiments described herein were conducted with a dihydrofolate reductase deficient (DHFR^−) Chinese Hamster Ovary cell line, DG44 CHO (Invitrogen, Carlsbad, Calif.). Prior to experimentation, the cells were transfected with a pOPTI-Vec TOPO plasmid vector containing the gene for a recombinant monoclonal ScFv-Fc1 protein fragment. Transfected cells were grown in selective OptiCHO medium (Invitrogen, Carlsbad, Calif.) and the recombinant gene copy number was further amplified by supplementing the medium with 250 nM methotrexate. The amount of recombinant antibody fragment expressed was less than 10 mg/L and not subsequently measured. This cell line was used to test the feasibility of the novel approach in terms of cell growth, death, and metabolism. Cells were frozen down and hereafter referred to as “Native Control” cells. All subsequent experiments were performed without methotrexate.
Cell concentration and viability was measured by the trypan blue exclusion method using a ViCell analyzer (Beckman Coulter, Fullerton, Calif.). Off-line measurements were taken with a Bioprofile 400 (Nova Biomedical, Waltham, Mass.) for glucose, glutamine, lactate, carbon dioxide, oxygen, ammonium concentration and pH levels. Osmolality was measured by freezing point depression on a Model 3250 Osmometer (Advanced Instruments, Norwood, Mass.)
In the first set of experiments, illustrated in FIGS. 1-6, cultures were grown at 30 ml working volume in 125 ml shaker flasks (Corning, Lowell, Mass.) placed in an incubator at 37° C., 135 rpm, and 8% CO2. Continuous passages were performed every 3 to 4 days in duplicate shaker flasks inoculated at a seeding density of 1.0×10^6 cell/ml. After the cells were adapted to the high lactate concentration, longer-duration batch cultures were performed in triplicate shaker flasks for 12 days starting at a seeding density of 0.3×10^6 cells/ml. A sodium (D/L)-lactate stock solution (Sigma, Lowell, Mass.) was used for lactate supplementation. All reported lactate values are for the physiologically relevant L-Lactate isomer.
Specific rates were determined on a time interval bases by measuring daily viable and total cell density (VCD or TCD) and metabolite concentrations. Specific net growth rate (μN), was calculated as change in VCD over a time interval t1 to t2 using Equation 1: […]
Metabolic flux was calculated as specific nutrient consumption rate or specific metabolite production rate (qp) using Equations 5 and 6, where P is nutrient such as glucose or glutamine or metabolite such as lactic acid or ammonium) concentration:
Native control cells were grown in various levels of Na-lactate and NaCl to evaluate the impact each component had on growth and viability. Media compositions are discussed in Table 1.

Turning to `CC(O)C(=O)[O-].[Na+]` (stereo not shown) [Na-lactate, sodium lactate], the lactic acid production entry in experiment [1] (cultures inoculated between 35 to 40 mM lactate (FIG. 3)) is given as “substantially reduced”. Besides, the “initial lactate concentration at zero net flux of lactic acid production” value in experiment [1] (predicted from FIG. 3) is “above 40 mM”. The “specific lactic acid production” value in experiment [2] (27 mM lactate (FIG. 1C)) is “dramatic drop”; in experiment [2] (40 mM lactate (FIG. 1C)), “clear shift from production to consumption”. Moreover, the “specific total growth and death rate” value in experiment [2] (non-adapted cells, Na-lactate compared with NaCl (FIG. 1B)) is “impacted specific total growth and death rate the most”. Also, the “viable cell density (VCD)” value in experiment [2] (non-adapted cells, increasing lactate levels (FIG. 1A)) was “clear reduction”.
`[Cl-].[Na+]` [NaCl, sodium chloride, reference compound]: the “specific lactic acid production” value in experiment [2] (NaCl supplementation (FIG. 1C)) is “No such effect”.
